Assay results: PubChem BioAssay (NCI)
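Each compound was tested at five concentrations against cells in 96-well plates for 48 hours. Abbreviation: GI50, concentration required for 50% inhibition of growth. TGI marks complete inhibition of growth.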

Key:
Test in all cases: NCI-60 cell line screen, 48 h
LOX IMVI melanoma = test system: LOX IMVI melanoma
OVCAR-4 ovarian = test system: OVCAR-4 ovarian
CAKI-1 renal = test system: CAKI-1 renal
SF-268 CNS = test system: SF-268 CNS
NCI-H226 lung = test system: NCI-H226 lung
SF-539 CNS = test system: SF-539 CNS
COLO 205 colon = test system: COLO 205 colon
NCI-H460 lung = test system: NCI-H460 lung
RPMI-8226 leukemia = test system: RPMI-8226 leukemia
A498 renal = test system: A498 renal

| SMILES | GI50 (LOX IMVI melanoma) | TGI (LOX IMVI melanoma) | GI50 (OVCAR-4 ovarian) | TGI (OVCAR-4 ovarian) | GI50 (CAKI-1 renal) | TGI (CAKI-1 renal) | GI50 (SF-268 CNS) | TGI (SF-268 CNS) | GI50 (NCI-H226 lung) | TGI (NCI-H226 lung) | GI50 (SF-539 CNS) | TGI (SF-539 CNS) | GI50 (COLO 205 colon) | TGI (COLO 205 colon) | GI50 (NCI-H460 lung) | TGI (NCI-H460 lung) | TGI (RPMI-8226 leukemia) | TGI (A498 renal) | GI50 (RPMI-8226 leukemia) | GI50 (A498 renal) |
| --- | --- | --- | --- | --- | --- | --- | --- | --- | --- | --- | --- | --- | --- | --- | --- | --- | --- | --- | --- | --- |
| Cc1cc2c(C(=O)NCC#N)cccc2n1-c1nc2c(c(NCc3ccccc3)n1)CCCC2 | 180 nM | 0.358 µM | 322 nM | 1.76 µM | 0.666 µM | > 100 µM | 0.34 µM | 1.35 µM | 0.293 µM | 0.748 µM | 0.249 µM | 0.764 µM | 0.201 µM | 0.404 µM | 0.261 µM | 0.686 µM | – | – | – | – |
| O=CC1CCC=CC1NC(=O)OCc1ccccc1 (stereo unspecified) | – | > 100 µM | – | > 100 µM | – | > 100 µM | – | > 100 µM | – | > 100 µM | – | 51.9 µM | – | > 100 µM | – | > 100 µM | > 100 µM | – | – | – |
| N#CC(C(=O)/C(=N/NC(=O)c1ccccc1O)C(C#N)c1ccc(Br)cc1)c1ccc(Br)cc1 (stereo unspecified) | – | 23 µM | – | 29.4 µM | – | – | – | – | – | 19.1 µM | – | 25.3 µM | – | 30.1 µM | – | 40 µM | – | 26.8 µM | – | – |
| Cc1ccc(/C=C(/C#N)n2nnc3ncccc32)cc1 | 3080 nM | 11.3 µM | 2140 nM | 15.8 µM | – | – | 3.08 µM | 15.1 µM | 4.46 µM | 28 µM | 2.47 µM | 9.61 µM | 2.25 µM | 10.5 µM | 2.69 µM | 7.76 µM | 9.73 µM | 7.51 µM | 3 µM | 2.28 µM |
| O=C1Nc2ccc(O)cc2/C1=C\c1ccncc1 | 12000 nM | 25.6 µM | – | – | 17.9 µM | 54.2 µM | 12 µM | 36.3 µM | – | – | 6.11 µM | 23.1 µM | 26.3 µM | 64.8 µM | 12.7 µM | 42.9 µM | > 100 µM | 49.9 µM | 34.1 µM | 30.5 µM |
| CCOC(=O)NC(=O)c1cn(CCCCCCCCCCC(=O)NCCCN2CCN(CCCNC(=O)CCCCCCCCCCn3cc(C(=O)NC(=O)OCC)c(=O)[nH]c3=O)CC2)c(=O)[nH]c1=O | – | > 100 µM | – | – | – | > 10 µM | – | > 100 µM | – | – | – | > 100 µM | – | > 100 µM | – | > 100 µM | – | > 100 µM | – | – |
| O=C1CC(C(=O)O)Cc2c(Br)ccc(O)c21 (stereo unspecified) | – | > 100 µM | – | > 100 µM | – | > 100 µM | – | > 100 µM | – | > 100 µM | – | – | – | > 100 µM | – | > 100 µM | > 100 µM | – | – | – |
| O=C[C@]12CC=C3OC4OC5(CCCCC5)OC4[C@H]3[C@H]1C(=O)C=CC2=O (stereo partly specified) | – | – | – | 31.7 µM | – | 74.6 µM | – | 89 µM | – | > 100 µM | – | 13.4 µM | – | – | – | 58.7 µM | – | > 100 µM | – | – |
| C=C1C(=O)O[C@@H]2C[C@@H]1CC[C@]1(C)O[C@H]1CC/C(C)=C/CC[C@@]2(C)O | 895 nM | 4.85 µM | – | – | 18.7 µM | 37 µM | 19.9 µM | 50.5 µM | 21.7 µM | 59.2 µM | 16.5 µM | 34.5 µM | 18.1 µM | 34.8 µM | 15.7 µM | 40.2 µM | > 100 µM | 74.5 µM | 6.58 µM | 23.3 µM |
